Some test systems named below: A549; ACHN; CCRF-CEM; HCT-15; HOP-62; KM12; NCI-H23; OVCAR-4; OVCAR-8; RPMI-8226; SF-295; SF-539; SNB-75; U-251; UACC-62; COLO 205; RXF 393.
Common to all, as to experiment: growth of human tumour cells (NCI), 48 h

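Exposure lasted 48 hours, with cells grown in 96-well plates and compounds tested at five concentrations. GI50 is the concentration that inhibits growth by half.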 Activity calls are given as the source filed them. No stated cut-off is given here; in the data, active = GI50 up to about 1.1 µM and inactive = higher.

With `C/C(=N/NS(=O)(=O)c1c(C)cc(C)cc1C)c1cccc[n+]1[O-]`, the GI50 is > 100 µM (inactive) with A549; > 100 µM (inactive) in the assay with ACHN; > 100 µM (inactive) in the assay on CCRF-CEM; above 100 µM in the assay with HCT-15; > 100 µM (inactive) in the assay with HOP-62; > 100 µM (inactive) in the assay on KM12. Besides, the GI50 in the assay with NCI-H23, in the assay with OVCAR-4, in the assay with OVCAR-8, in the assay with RPMI-8226, in the assay on SF-295 and in the assay with SF-539 was > 100 µM (inactive) each time. Moreover, the GI50 was 76.2 µM (inactive) in the assay on SNB-75, > 100 µM (inactive) in the assay with U-251 and > 100 µM (inactive) in the assay on UACC-62.
Regarding `CCOC(=O)C1=C(Nc2ccc(Cl)cc2Cl)OCC1=O`, the GI50 with A549 is > 100 µM (inactive); with ACHN, > 100 µM (inactive); with COLO 205, > 100 µM (inactive); in the assay on HCT-15, above 100 µM; in the assay on HOP-62 it was > 100 µM (inactive); in the assay on KM12, > 100 µM (inactive). In addition, the GI50 with NCI-H23, with OVCAR-4, in the assay with OVCAR-8, with RPMI-8226, with SF-295 and in the assay on SF-539 was > 100 µM (inactive) in each case. Also, the GI50 in the assay on SNB-75, with U-251 and with UACC-62 was > 100 µM (inactive) in each case.
As for `CCOC(=N)CC(=O)Nc1cccc(C)c1C`, the GI50 in the assay on A549, with ACHN, in the assay with CCRF-CEM, in the assay on COLO 205, in the assay with HOP-62 and in the assay on KM12 was > 100 µM (inactive) throughout. Also, the GI50 in the assay with NCI-H23, in the assay on OVCAR-4, with OVCAR-8, in the assay on RXF 393, with SF-295 and in the assay with SF-539 was > 100 µM (inactive) throughout. Further, the GI50 with SNB-75, with U-251 and with UACC-62 was > 100 µM (inactive) each time.
Regarding `C/N=c1/ss/c(=N\C(SC)=[N+](C)C)n1C.[O-][Cl+3]([O-])([O-])[O-]`, the GI50 was > 100 µM (inactive) with A549; > 100 µM (inactive) in the assay on ACHN; 3.97 µM (inactive) in the assay with CCRF-CEM; above 100 µM in the assay with HCT-15; > 100 µM (inactive) in the assay with HOP-62; > 100 µM (inactive) with KM12. In addition, the GI50 was > 100 µM (inactive) with NCI-H23; > 100 µM (inactive) in the assay on OVCAR-8; > 100 µM (inactive) with RXF 393; > 100 µM (inactive) with SF-295; > 100 µM (inactive) in the assay with U-251; 3.99 µM (inactive) with UACC-62.
In the case of `COc1ccccc1NC(=O)C1=C(C)NC(C)=C(C(=O)Nc2ccccc2OC)C1c1ccccc1Cl`, the GI50 was 41.6 µM (inactive) with A549; 55.7 µM (inactive) in the assay on ACHN; 38.4 µM (inactive) in the assay on CCRF-CEM; > 100 µM (inactive) in the assay with COLO 205; 56.2 µM in the assay with HCT-15; > 100 µM (inactive) in the assay on HOP-62. For the same compound, the GI50 was 61 µM (inactive) in the assay with KM12; > 100 µM (inactive) with NCI-H23; > 100 µM (inactive) in the assay on OVCAR-4; > 100 µM (inactive) in the assay on OVCAR-8; 30.7 µM (inactive) in the assay on RPMI-8226; > 100 µM (inactive) with SF-295. Further, the GI50 in the assay with SF-539 is 26.1 µM (inactive); in the assay with SNB-75, 46.9 µM (inactive); with U-251, 78.3 µM (inactive); in the assay with UACC-62 it was > 100 µM (inactive).

These data come from ChEMBL document CHEMBL1201862, “PubChem BioAssay data set” (2004).
